In the NIST ThermoML archive (doi:10.1016/j.jct.2018.01.021):
Numbers after ± are expanded uncertainties.

Experiment: mn = molality of the nth substance listed, in mol/kg
Settings: 100 kPa, Liquid; for speed of sound: Frequency=3 MHz, Single path-length method; for mass density: Vibrating tube method

C[N+](C)(C)[O-] [trimethylamine oxide] + O
m1 = 1.08
Settings	mass density [kg/m3]	speed of sound [m/s]
293.15 K	1000.9 ± 0.38	1564.8 ± 2.3
298.15 K	999.7 ± 0.38	1575.7 ± 2.3
303.15 K	998.26 ± 0.38	1584.2 ± 2.3
308.15 K	996.53 ± 0.38	1589.4 ± 2.3
313.15 K	994.81 ± 0.38	1595.5 ± 2.3

O [water] + C[N+](C)(C)[O-]
m2 = 0
Settings	speed of sound [m/s]
298.15 K	1497.7 ± 2
308.15 K	1520.7 ± 2

C[N+](C)(C)C[C@H](O)CC(=O)[O-] [(R)-3-hydroxy-4-(trimethylammonio)butanoate] + O
Settings	mass density [kg/m3]	speed of sound [m/s]
293.15 K, m1 = 0.0937	1001.09 ± 0.32	1492.4 ± 2
293.15 K, m1 = 0.1233	1001.98 ± 0.34	1495.2 ± 2.1
293.15 K, m1 = 0.1554	1002.94 ± 0.35	1498.3 ± 2.1
293.15 K, m1 = 0.1924	1004.04 ± 0.38	1501.8 ± 2.1
293.15 K, m1 = 0.2249	1004.99 ± 0.4	1504.9 ± 2.2
293.15 K, m1 = 0.2574	1005.94 ± 0.43	1507.9 ± 2.2
293.15 K, m1 = 0.276	1006.48 ± 0.44	1509.7 ± 2.3
293.15 K, m1 = 0.3064	1007.35 ± 0.46	1512.5 ± 2.3
298.15 K, m1 = 0.0497	998.57 ± 0.31	1502.3 ± 2
298.15 K, m1 = 0.0994	1000.06 ± 0.32	1506.9 ± 2
298.15 K, m1 = 0.1214	1000.71 ± 0.33	1508.9 ± 2.1
298.15 K, m1 = 0.1509	1001.58 ± 0.35	1511.6 ± 2.1
298.15 K, m1 = 0.2007	1003.03 ± 0.38	1516.1 ± 2.1
298.15 K, m1 = 0.2203	1003.6 ± 0.4	1517.8 ± 2.2
298.15 K, m1 = 0.2572	1004.66 ± 0.42	1521.2 ± 2.2
298.15 K, m1 = 0.3012	1005.91 ± 0.44	1525.1 ± 2.2
303.15 K, m1 = 0.0477	997.1 ± 0.31	1514.3 ± 2
303.15 K, m1 = 0.1029	998.75 ± 0.33	1519.2 ± 2
303.15 K, m1 = 0.1227	999.33 ± 0.34	1521 ± 2.1
303.15 K, m1 = 0.1531	1000.21 ± 0.35	1523.6 ± 2.1
303.15 K, m1 = 0.2046	1001.71 ± 0.41	1528.1 ± 2.3
303.15 K, m1 = 0.2174	1002.07 ± 0.39	1529.2 ± 2.2
303.15 K, m1 = 0.255	1003.14 ± 0.42	1532.4 ± 2.2
303.15 K, m1 = 0.3041	1004.51 ± 0.44	1536.7 ± 2.2
308.15 K, m1 = 0.0512	995.58 ± 0.31	1525.2 ± 2
308.15 K, m1 = 0.0938	996.84 ± 0.32	1528.8 ± 2
308.15 K, m1 = 0.1229	997.69 ± 0.33	1531.2 ± 2
308.15 K, m1 = 0.1447	998.32 ± 0.35	1533.1 ± 2.1
308.15 K, m1 = 0.1952	999.78 ± 0.37	1537.3 ± 2.1
308.15 K, m1 = 0.2238	1000.59 ± 0.39	1539.7 ± 2.1
308.15 K, m1 = 0.2282	1000.71 ± 0.39	1540.1 ± 2.1
308.15 K, m1 = 0.304	1002.84 ± 0.45	1546.4 ± 2.2
313.15 K, m1 = 0.0519	993.75 ± 0.31	1534.1 ± 2
313.15 K, m1 = 0.1012	995.21 ± 0.33	1538.2 ± 2
313.15 K, m1 = 0.1204	995.77 ± 0.33	1539.7 ± 2
313.15 K, m1 = 0.1428	996.42 ± 0.34	1541.5 ± 2.1
313.15 K, m1 = 0.1922	997.84 ± 0.37	1545.5 ± 2.1
313.15 K, m1 = 0.2107	998.36 ± 0.38	1547 ± 2.1
313.15 K, m1 = 0.2436	999.29 ± 0.41	1549.7 ± 2.2
313.15 K, m1 = 0.3053	1001 ± 0.45	1554.7 ± 2.2

O [water] + O=C[C@H](O)[C@@H](O)[C@H](O)[C@H](O)CO
Settings	speed of sound [m/s]
298.15 K, m2 = 0	1497.7 ± 2

[Cl-].[Na+] [sodium chloride] + O
298.15 K
Settings	mass density [kg/m3]	speed of sound [m/s]
m1 = 0.151	1003.43 ± 0.31	1507.5 ± 2
m1 = 1.021	1037.99 ± 0.52	1560.5 ± 2

O=C[C@H](O)[C@@H](O)[C@H](O)[C@H](O)CO [D-glucose] + O
298.15 K
Settings	mass density [kg/m3]	speed of sound [m/s]
m1 = 0.153	–	1507.3 ± 2.1
m1 = 1.13	1064.98 ± 2.7	1565.3 ± 2.1

O [water] + [Cl-].[Na+]
Settings	speed of sound [m/s]
298.15 K, m2 = 0	1497.7 ± 2

O [water] + C[N+](C)(C)C[C@H](O)CC(=O)[O-]
m2 = 0
Settings	speed of sound [m/s]
298.15 K	1497.7 ± 2
308.15 K	1520.7 ± 2
